The results in this text go back to article PMC8362950 (PLoS ONE, 2021).

In one assay the target is T1, 6xHis-CBU0823 (Coxiella burnetii, UniProt Q83DB5).
T1 construct: gene sfcA
The note with it: substrate inhibition constant (KSi), 1 mM MnCl2, PBS pH 7.4.

Assay [1] concerns the target T2, 6xHis-oMLE (Oenococcus oeni, UniProt Q48796).
T2 construct: gene mleA
Type of assay: biochemical.

Assay [2] addresses T2, 6xHis-oMLE. It counts as biochemical. The source holds these as a separate data set.
A further assay addresses T3, GST-CBU1241 (Coxiella burnetii, UniProt Q83C87).
T3 construct: gene mdh
The note with it: substrate inhibition constant (KSi); 0.5 mM NADH, PBS pH 7.4.

SMILES strings stand for the structures. Read-outs that look alike come from different tables or passages of the source.

T1 sequence (Q83DB5 1-565 limits assumed): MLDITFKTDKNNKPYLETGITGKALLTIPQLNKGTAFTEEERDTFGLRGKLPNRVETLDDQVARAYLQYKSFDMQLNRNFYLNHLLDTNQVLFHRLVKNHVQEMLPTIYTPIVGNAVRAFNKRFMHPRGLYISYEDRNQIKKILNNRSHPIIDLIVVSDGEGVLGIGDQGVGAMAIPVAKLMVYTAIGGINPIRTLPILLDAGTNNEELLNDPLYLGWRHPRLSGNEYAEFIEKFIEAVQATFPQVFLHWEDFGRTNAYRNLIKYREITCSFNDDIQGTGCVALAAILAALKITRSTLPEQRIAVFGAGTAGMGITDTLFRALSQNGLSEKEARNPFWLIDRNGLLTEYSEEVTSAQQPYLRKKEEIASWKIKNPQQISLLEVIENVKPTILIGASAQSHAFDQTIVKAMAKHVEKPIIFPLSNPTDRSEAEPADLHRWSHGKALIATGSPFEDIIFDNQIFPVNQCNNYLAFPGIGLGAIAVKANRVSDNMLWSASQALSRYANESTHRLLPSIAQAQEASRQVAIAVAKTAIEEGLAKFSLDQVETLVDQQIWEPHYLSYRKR
T2 sequence (Q48796 whole entry): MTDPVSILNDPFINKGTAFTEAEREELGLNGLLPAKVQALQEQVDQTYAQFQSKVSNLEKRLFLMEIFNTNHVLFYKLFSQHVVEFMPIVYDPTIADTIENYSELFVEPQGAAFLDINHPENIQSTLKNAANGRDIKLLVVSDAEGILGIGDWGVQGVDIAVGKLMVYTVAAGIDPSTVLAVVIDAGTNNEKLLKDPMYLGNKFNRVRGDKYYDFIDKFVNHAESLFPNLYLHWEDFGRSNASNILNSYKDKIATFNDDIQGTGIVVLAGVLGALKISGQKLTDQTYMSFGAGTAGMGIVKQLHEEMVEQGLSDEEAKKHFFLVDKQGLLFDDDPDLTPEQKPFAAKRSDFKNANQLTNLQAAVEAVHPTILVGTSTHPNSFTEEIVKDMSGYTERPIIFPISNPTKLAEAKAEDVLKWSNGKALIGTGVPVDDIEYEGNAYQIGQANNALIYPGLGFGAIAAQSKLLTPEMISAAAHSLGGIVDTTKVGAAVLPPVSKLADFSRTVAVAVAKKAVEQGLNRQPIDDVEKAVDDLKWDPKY
T3 sequence (Q83C87 whole entry, looked up): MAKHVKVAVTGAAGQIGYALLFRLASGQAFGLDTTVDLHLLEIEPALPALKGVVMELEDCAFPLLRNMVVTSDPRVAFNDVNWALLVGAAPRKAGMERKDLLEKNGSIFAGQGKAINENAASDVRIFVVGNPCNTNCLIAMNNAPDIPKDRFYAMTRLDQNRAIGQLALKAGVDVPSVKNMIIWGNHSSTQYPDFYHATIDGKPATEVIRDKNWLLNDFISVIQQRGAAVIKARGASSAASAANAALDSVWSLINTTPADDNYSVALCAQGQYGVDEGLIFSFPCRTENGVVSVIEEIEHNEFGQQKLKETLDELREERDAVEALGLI

As for `NC(=O)c1ccc[n+]([C@@H]2O[C@H](COP(=O)(O)OP(=O)(O)OC[C@H]3O[C@@H](n4cnc5c(N)ncnc54)[C@H](O)[C@@H]3O)[C@@H](O)[C@H]2O)c1` [NAD^+], on 6xHis-CBU0823 (3 mM malate, printed as NADH, but b28, Fig 6B and S3F show varied NAD+), the Ki is 6.30 (95% CI 0.27–12.33) mM. On to `O=C(O)C[C@H](O)C(=O)O` [malate], for which, on 6xHis-oMLE [1], the “GC-MS detection of lactate and pyruvate” value was 6xHis-oMLE could generate amounts of lactate and pyruvate significantly above baseline. The Ki on 6xHis-CBU0823 (NAD+ 2.5 mM (Fig 6 legend: 5 mM)) is 10.86 (95% CI -7.31–29.05) mM. Regarding `O=C(O)CC(=O)C(=O)O` [oxaloacetate], the “NADH oxidation at 340 nm” value on 6xHis-oMLE [2] is listed as “the observed reduction of OAA indicating MDH activity was not detected in the previous characterisation”. In addition, the Ki at GST-CBU1241 is 1.25 (95% CI -0.85–3.39) mM.
